Measured values reported in patent publication US7166620B2 (dated 2007).

CO/C=C(/C(=O)OC)c1ccccc1COc1nc(C(F)(F)F)sc1C
melting point: 59 °C
